Measurements from patent US20240307319A1, “IONIZABLE LIPID MOLECULE, PREPARATION METHOD THEREFOR, AND APPLICATION THEREOF IN PREPARATION OF LIPID NANOPARTICLE” (IMMORNA (HANGZHOU) BIOTECHNOLOGY CO., LTD., priority 2021, published 2024).

Tested on: BHK cells
Test: Protein in vitro expression ability of eGFP mRNA lipid nanoparticle compositions in BHK cells by flow cytometer
Assay type: cell-based
Conditions: 24-hour co-incubation, MC3 LNP without mRNA set as 0; for Fluorescent protein expression rate (0.1 μg): 0.1 μg LNP composition with eGFP mRNA; for Fluorescent protein expression rate (0.5 μg): 0.5 μg LNP composition with eGFP mRNA
Method: BHK cells were from ATCC and maintained at 37° C. under 5% CO2 in Dulbecco's modified Eagle medium (HyClone) supplemented with 10% fetal bovine serum (HyClone). 0.1 μg or 0.5 μg of the lipid nanoparticle composition prepared by the ionizable lipid compound of the invention or the commercial MC3 nanoparticle composition was co-incubated with the BHK cells to deliver the mRNA nucleic acid encoding the enhanced green fluorescent protein contained therein into the BHK cells to express the corresponding protein. After 24-hour co-incubation, the cells were digested with trypsin and collected, and signal intensity of intracellular green fluorescent protein was collected using a flow cytometer. Analysis of relative protein expression rates was performed using a cell group to which the commercial MC3 nanoparticle composition not containing mRNA encoding enhanced green fluorescent protein was added as a control.
The fluorescence intensity obtained after the commercial MC3 nanoparticle composition not containing mRNA encoding enhanced green fluorescent protein was co-incubated with cells is set as the base point, with the green fluorescent protein expression rate being 0.

Row | Compound | Fluorescent protein expression rate (0.1 μg) | Fluorescent protein expression rate (0.5 μg)
1 | CCCCCCCCCOC(=O)CCCCCCCOc1ccc(OCCCCCCCC(=O)OCCCCCCCCC)c(COC(=O)CCCN(C)C)c1 [Compound I] | 82.60% | 93.51%
2 | CCCCC/C=C\C/C=C\CCCCCCCCC(CCCCCCCC/C=C\C/C=C\CCCCC)OC(=O)CCCN(C)C [MC3, Dlin-MC3-DMA] | 95.87% | 99.99%
